The values below come from PubChem BioAssay AID258 (DTP/NCI, 2004).

The subject of the test is CD2F1 mice, L1210 leukemia sc, survival T/C. Description: NCI In Vivo Anticancer Drug Screen. Data for tumor model L1210 Leukemia (subcutaneous) in CD2F1 (CDF1) mice. To be noted: endpoint: median survival time, higher = longer survival. On the procedure:
The antitumor activity of compounds was measured in mice bearing transplantable tumors. Survival or tumor size were measured and the results are expressed as the measurement made in the treated group (T) divided by the measurement made in the vehicle treated control group (C). The tumor model used in this assay is L1210 Leukemia (subcutaneous) in CD2F1 (CDF1) mice

Setting [1] is: dose: 14.0 mg/kg/injection, schedule: Q01DX Z (sc), vehicle: water.
Where [2] appears, read: dose: 23.0 mg/kg/injection, schedule: Q01DX Z (sc), vehicle: water.

Values joined by “and” are separate entries in the source; they are usually repeats but may differ in a detail not shown here. Equal values may be shown once. Toxic doses and inconclusive results are not listed.

On to `CCOC(=O)NP(=O)(N1CC1)N1CC1`, for which the T/C was 172 % of control under setting [1] and 161 % of control under setting [2].

As to `Cc1c(N)nc([C@H](CC(N)=O)NC[C@H](N)C(N)=O)nc1C(=O)N[C@H](C(=O)N[C@H](C)[C@@H](O)[C@H](C)C(=O)N[C@H](C(=O)NCCc1nc(-c2nc(C(=O)NCCC[S+](C)C)cs2)cs1)[C@@H](C)O)C(OC1OC(CO)C(O)C(O)C1OC1OC(CO)C(O)C(OC(N)=O)C1O)c1cnc[nH]1` (stereo partly specified), the T/C (dose: 1.0 mg/kg/injection, schedule: Q01DX009 (ip), vehicle: saline) was 100 % of control; the T/C (dose: 2.0 mg/kg/injection, schedule: Q01DX009 (ip), vehicle: saline) was 100 % of control and 101 % of control and 107 % of control; the T/C (dose: 2.0 mg/kg/injection, schedule: Q01DX009 (sc), vehicle: saline) is 110 % of control; the T/C (dose: 4.0 mg/kg/injection, schedule: Q01DX009 (ip), vehicle: saline) was 100 % of control and 105 % of control and 109 % of control; the T/C (dose: 4.0 mg/kg/injection, schedule: Q01DX009 (sc), vehicle: saline) is 102 % of control; the T/C (dose: 8.0 mg/kg/injection, schedule: Q01DX009 (ip), vehicle: saline) is 100 % of control and 107 % of control and 109 % of control. The T/C (dose: 8.0 mg/kg/injection, schedule: Q01DX009 (sc), vehicle: saline) was 102 % of control; the T/C (dose: 16.0 mg/kg/injection, schedule: Q01DX009 (ip), vehicle: saline) was 104 % of control and 107 % of control and 112 % of control; the T/C (dose: 16.0 mg/kg/injection, schedule: Q01DX009 (sc), vehicle: saline) is 106 % of control; the T/C (dose: 32.0 mg/kg/injection, schedule: Q01DX009 (ip), vehicle: saline) was 102 % of control and 109 % of control and 112 % of control; the T/C (dose: 32.0 mg/kg/injection, schedule: Q01DX009 (sc), vehicle: saline) is 100 % of control; the T/C (dose: 64.0 mg/kg/injection, schedule: Q01DX009 (ip), vehicle: saline) is 112 % of control.

Consider `Cc1cccnc1`, for which the T/C (dose: 108.0 mg/kg/injection, schedule: Q01DX Z (sc), vehicle: water) was 100 % of control and the T/C (dose: 180.0 mg/kg/injection, schedule: Q01DX Z (sc), vehicle: water) is 100 % of control.

Regarding `O=C(CCBr)N1CCN(C(=O)CCBr)CC1`, the T/C was 111 % of control (dose: 28.0 mg/kg/injection, schedule: Q01DX Z (sc), vehicle: methylcellulose (MC)); 111 % of control (dose: 47.0 mg/kg/injection, schedule: Q01DX Z (sc), vehicle: methylcellulose (MC)); 122 % of control (dose: 78.0 mg/kg/injection, schedule: Q01DX Z (sc), vehicle: methylcellulose (MC)); 122 % of control (dose: 360.0 mg/kg/injection, schedule: Q01DX Z (sc), vehicle: methylcellulose (MC)).

Take `CC[C@H](c1ccc(O)cc1)[C@@H](CC)c1ccc(O)cc1`: the T/C (dose: 130.0 mg/kg/injection, schedule: Q01DX Z (sc), vehicle: methylcellulose (MC)) was 111 % of control.

As to `O=c1n[n+]([O-])ccn1C1OC(CO)C(O)C1O` (stereo unspecified), the T/C reads like this: (dose: 172.8 mg/kg/injection, schedule: Q01DX009 (ip), vehicle: saline) 109 % of control; (dose: 288.0 mg/kg/injection, schedule: Q01DX009 (ip), vehicle: saline) 123 % of control; (dose: 480.0 mg/kg/injection, schedule: Q01DX009 (ip), vehicle: saline) 152 % of control.

As to `Nc1nc2ncn(O)c2c(=O)[nH]1`, the T/C runs as follows: (dose: 4.5 mg/kg/injection, schedule: Q01DX009 (ip), vehicle: other) 278 % of control; (dose: 7.5 mg/kg/injection, schedule: Q01DX009 (ip), vehicle: other) 164 % of control; (dose: 12.5 mg/kg/injection, schedule: Q01DX009 (ip), vehicle: other) 268 % of control; (dose: 20.83 mg/kg/injection, schedule: Q01DX009 (ip), vehicle: other) 113 % of control.

With `C[C@]12C[C@H](O)[C@H]3[C@@H](CCC4=CC(=O)CC[C@@]43C)[C@@H]1CC[C@@H]2C(=O)CO`, the T/C (dose: 180.0 mg/kg/injection, schedule: Q01DX Z (sc), vehicle: methylcellulose (MC)) was 100 % of control.

For the compound `CC(=O)OC1COC(NC(=O)N(CCCl)N=O)C(OC(C)=O)C1OC(C)=O` (stereo unspecified), the T/C was 104 % of control (dose: 0.75 mg/kg/injection, schedule: Q01DX009 (ip), vehicle: saline with Tween-80); 102 % of control (dose: 1.5 mg/kg/injection, schedule: Q01DX009 (ip), vehicle: saline with Tween-80); 102 % of control and 122 % of control (dose: 3.0 mg/kg/injection, schedule: Q01DX009 (ip), vehicle: saline with Tween-80); 158 % of control and 297 % of control (dose: 12.0 mg/kg/injection, schedule: Q01DX009 (ip), vehicle: saline with Tween-80).

On to `Nc1cc(C(=O)Nc2ccc(C3=NCCN3)cc2)ccc1C(=O)Nc1ccc(C2=NCCN2)cc1`, for which the T/C runs as follows: (dose: 3.0 mg/kg/injection, schedule: Q01DX Z (sc), vehicle: methylcellulose (MC)) 111 % of control; (dose: 3.0 mg/kg/injection, schedule: Q01DX Z (sc), vehicle: water) 116 % of control; (dose: 5.0 mg/kg/injection, schedule: Q01DX Z (sc), vehicle: methylcellulose (MC)) 200 % of control; (dose: 5.0 mg/kg/injection, schedule: Q01DX Z (sc), vehicle: water) 266 % of control; (dose: 8.4 mg/kg/injection, schedule: Q01DX Z (sc), vehicle: methylcellulose (MC)) 255 % of control; (dose: 8.4 mg/kg/injection, schedule: Q01DX Z (sc), vehicle: water) 294 % of control. For the same compound, the T/C by setting is: (dose: 14.0 mg/kg/injection, schedule: Q01DX Z (sc), vehicle: methylcellulose (MC)) 200 % of control; under setting [1], 266 % of control; (dose: 23.0 mg/kg/injection, schedule: Q01DX Z (sc), vehicle: methylcellulose (MC)) 161 % of control; under setting [2], 288 % of control; (dose: 39.0 mg/kg/injection, schedule: Q01DX Z (sc), vehicle: methylcellulose (MC)) 155 % of control; (dose: 39.0 mg/kg/injection, schedule: Q01DX Z (sc), vehicle: water) 211 % of control. The T/C (dose: 65.0 mg/kg/injection, schedule: Q01DX Z (sc), vehicle: methylcellulose (MC)) was 155 % of control and the T/C (dose: 65.0 mg/kg/injection, schedule: Q01DX Z (sc), vehicle: water) is 200 % of control.

Consider `CC(C)(C)N1CC1CNC(=O)C(=O)NCC1CN1C(C)(C)C` (stereo unspecified), for which the T/C reads like this: (dose: 3.13 mg/kg/injection, schedule: Q01DX009 (ip), vehicle: saline with Tween-80) 107 % of control and 108 % of control; (dose: 6.25 mg/kg/injection, schedule: Q01DX009 (ip), vehicle: saline with Tween-80) 122 % of control; (dose: 12.5 mg/kg/injection, schedule: Q01DX009 (ip), vehicle: saline with Tween-80) 157 % of control; (dose: 25.0 mg/kg/injection, schedule: Q01DX009 (ip), vehicle: saline with Tween-80) 86 % of control.

For `CCOC1=C(N2CC2)C(=O)C(OCC)=C(N2CC2)C1=O`, the T/C runs as follows: (dose: 3.0 mg/kg/injection, schedule: Q01DX Z (sc), vehicle: carboxymethylcellulose (CMC)) 113 % of control; (dose: 5.0 mg/kg/injection, schedule: Q01DX Z (sc), vehicle: carboxymethylcellulose (CMC)) 118 % of control; (dose: 8.4 mg/kg/injection, schedule: Q01DX Z (sc), vehicle: carboxymethylcellulose (CMC)) 113 % of control; (dose: 14.0 mg/kg/injection, schedule: Q01DX Z (sc), vehicle: carboxymethylcellulose (CMC)) 109 % of control; (dose: 23.0 mg/kg/injection, schedule: Q01DX Z (sc), vehicle: carboxymethylcellulose (CMC)) 100 % of control.

With `Cc1cc(NCCCCCCCNc2cc(C)nc3cc(N)ccc23)c2ccc(N)cc2n1`, the T/C is, setting by setting: (dose: 1.56 mg/kg/injection, schedule: Q01DX009 (ip), vehicle: water) 100 % of control and 104 % of control and 98 % of control; (dose: 3.12 mg/kg/injection, schedule: Q01DX009 (ip), vehicle: water) 109 % of control and 110 % of control and 121 % of control; (dose: 6.25 mg/kg/injection, schedule: Q01DX009 (ip), vehicle: water) 120 % of control; (dose: 12.5 mg/kg/injection, schedule: Q01DX009 (ip), vehicle: water) 156 % of control and 175 % of control; (dose: 25.0 mg/kg/injection, schedule: Q01DX009 (ip), vehicle: water) 120 % of control.
